The pEC50 is the EC50 on a negative log10 scale, so that one unit is a factor of ten.

These results are taken from US20240067632A1, “WEE1 Degrading Compounds and Uses Thereof” (Bristol-Myers Squibb Company, priority 2022, published 2024).

One test addresses T1, WEE1 (Homo sapiens, UniProt P30291+Q96SW2).
T1 construct: C-terminal ePL-tagged (DiscoverX, Fremont, CA) full-length WEE1 expression construct; expressed in transfected cells; host or cells: LentiX-HEK293T (Invitrogen), lentiviral transduction; co-expressing GSPT1-GN (G576N, lacking the first 158 amino acids)
Nature of the test: WEE1-ePL degradation assay (LentiX-WEE1-ePL-GSPT1-ND cells, InCELL Hunter luminescence, 4 h). The format is cell-based. Particulars: 293T-LentiX WEE1-ePL cells; for 293T-LentiX WEE1-ePL Degradation 4 hr (Ymin): lower limit of the fit (0 = luciferase inhibitor, Ymax = DMSO control); for DC50: read-out: 293T-LentiX WEE1-ePL Degradation 4 hr (EC50). In short, it runs like this: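 Degradation EC50 was fitted by a four-parameter logistic model, with the upper limit taken from DMSO wells. Luminescence was read with InCELL Hunter reagent after 30 min at room temperature, following a 4 h, 37° C exposure of 2500 cells/well. Cells were LentiX-HEK293T carrying ePL-tagged full-length WEE1, dosed in 10 points (3-fold) from 1 or 10 uM.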

Another test relates to MKN45 cells. Description: MKN45 cell proliferation assay (Cell-Titer-Glo, 120 h). The format is cell-based. The note with it: for pEC50: Homo sapiens, MKN-45, 120 h, Cell-Titer-Glo, growth inhibition, read-out: MKN45 Cell Prolif. 120 hr (EC50); for MKN45 Cell Prolif. 120 hr (Ymin-Obs): minimal percent of DMSO control observed in the concentrations tested. In short, it runs like this: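 Growth inhibition was read as blank-corrected Cell-Titer-Glo luminescence expressed as percent DMSO control after 120 h at 37 C, 400 cells/well. Compounds tested in triplicate as 10-point half-log series from 1 or 10 uM, 0.1% DMSO; four-parameter fit gave EC50, and lowest observed percent control was reported as Ymin-obs.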

pEC50: −log10 of the molar value.

For `O=C1CCC(N2Cc3cc(O[C@H]4CCN(Cc5cc6cccc(F)c6cn5)C4)ccc3C2=O)C(=O)N1` (stereo partly drawn) [3-(5-{[(3S)-1-[(8-fluoroisoquinolin-3-yl)methyl]pyrrolidin-3-yl]oxy}-1-oxo-2,3-dihydro-1H-isoindol-2-yl)piperidine-2,6-dione], on WEE1, the “293T-LentiX WEE1-ePL Degradation 4 hr (Ymin)” value amounted to 30.295 and the DC50 was 5.32 nM. Further, in the test on MKN45 cells, the pEC50 is 7.61 and the “MKN45 Cell Prolif. 120 hr (Ymin-Obs)” value worked out at 10.49.
With `CN1CCCc2cc(CN3CC[C@H](Oc4ccc5c(c4)CN(C4CCC(=O)NC4=O)C5=O)C3)cnc21` (stereo partly drawn) [3-(5-{[(3S)-1-[(8-methyl-5,6,7,8-tetrahydro-1,8-naphthyridin-3-yl)methyl]pyrrolidin-3-yl]oxy}-1-oxo-2,3-dihydro-1H-isoindol-2-yl)piperidine-2,6-dione], on WEE1, the “293T-LentiX WEE1-ePL Degradation 4 hr (Ymin)” value turned out to be 58 and the DC50 is 19.1 nM. Also, in the test on MKN45 cells, the pEC50 was less than 5.00 and the “MKN45 Cell Prolif. 120 hr (Ymin-Obs)” value worked out at 79.28.
`Cc1cccc2cc(CN3CC[C@H](Oc4ccc5c(c4)CN(C4CCC(=O)NC4=O)C5=O)C3)ncc12` (stereo partly drawn) [3-(5-{[(3S)-1-[(8-methylisoquinolin-3-yl)methyl]pyrrolidin-3-yl]oxy}-1-oxo-2,3-dihydro-1H-isoindol-2-yl)piperidine-2,6-dione]: on WEE1, the “293T-LentiX WEE1-ePL Degradation 4 hr (Ymin)” value is 32.22 and the DC50 is 6.41 nM. Moreover, in the test on MKN45 cells, the pEC50 was 6.93 and the “MKN45 Cell Prolif. 120 hr (Ymin-Obs)” value is 19.68.
In the case of `O=C1CCC(N2Cc3cc(O[C@H]4CCN(Cc5cc6ccccc6nn5)C4)ccc3C2=O)C(=O)N1` (stereo partly drawn) [3-(5-{[(3S)-1-[(cinnolin-3-yl)methyl]pyrrolidin-3-yl]oxy}-1-oxo-2,3-dihydro-1H-isoindol-2-yl)piperidine-2,6-dione], at WEE1, the “293T-LentiX WEE1-ePL Degradation 4 hr (Ymin)” value is listed as 26.03 and the DC50 was found to be 12.5 nM. Also, in the test on MKN45 cells, the negative logarithm of the EC50 (pEC50) is 7.18 and the “MKN45 Cell Prolif. 120 hr (Ymin-Obs)” value worked out at 8.97.
For `O=C1CCC(N2Cc3cc(O[C@H]4CCN(Cc5ccc6nnccc6c5)C4)ccc3C2=O)C(=O)N1` (stereo partly drawn) [3-(5-{[(3S)-1-[(cinnolin-6-yl)methyl]pyrrolidin-3-yl]oxy}-1-oxo-2,3-dihydro-1H-isoindol-2-yl)piperidine-2,6-dione], in that order: 26.65, 12.5 nM, 7.48 and 8.19.
On to `O=C1CCC(N2Cc3cc(O[C@H]4CCN(Cc5cc6ccccc6cn5)C4)ccc3C2=O)C(=O)N1` (stereo partly drawn) [3-(5-{[(3S)-1-[(isoquinolin-3-yl)methyl]pyrrolidin-3-yl]oxy}-1-oxo-2,3-dihydro-1H-isoindol-2-yl)piperidine-2,6-dione], for which, on WEE1, the “293T-LentiX WEE1-ePL Degradation 4 hr (Ymin)” value is 30.345 and the DC50 turned out to be 4.05 nM. In the test on MKN45 cells, the pEC50 is 7.36 and the “MKN45 Cell Prolif. 120 hr (Ymin-Obs)” value came out at 13.47.
For `O=C1CCC(N2Cc3cc(O[C@H]4CCN(Cc5ccc6cnccc6c5)C4)ccc3C2=O)C(=O)N1` (stereo partly drawn) [3-(5-{[(3S)-1-[(isoquinolin-6-yl)methyl]pyrrolidin-3-yl]oxy}-1-oxo-2,3-dihydro-1H-isoindol-2-yl)piperidine-2,6-dione], at WEE1, the “293T-LentiX WEE1-ePL Degradation 4 hr (Ymin)” value is 25.71 and the DC50 was found to be 17 nM. Moreover, in the test on MKN45 cells, the pEC50 was 7.28 and the “MKN45 Cell Prolif. 120 hr (Ymin-Obs)” value amounted to 15.77.
`O=C1CCC(N2Cc3cc(O[C@H]4CCN(Cc5ccc6ccncc6c5)C4)ccc3C2=O)C(=O)N1` (stereo partly drawn) [3-(5-{[(3S)-1-[(isoquinolin-7-yl)methyl]pyrrolidin-3-yl]oxy}-1-oxo-2,3-dihydro-1H-isoindol-2-yl)piperidine-2,6-dione]: on WEE1, the “293T-LentiX WEE1-ePL Degradation 4 hr (Ymin)” value is on record as 46 and the DC50 came to 21 nM. Moreover, in the test with MKN45 cells, the pEC50 was 6.54 and the “MKN45 Cell Prolif. 120 hr (Ymin-Obs)” value is 54.45.
Consider `O=C1CCC(N2Cc3cc(O[C@H]4CCN(Cc5ccc6nc(C7(O)CCC7)ccc6c5)C4)ccc3C2=O)C(=O)N1` (stereo partly drawn) [3-(5-{[(3S)-1-{[2-(1-hydroxycyclobutyl)quinolin-6-yl]methyl}pyrrolidin-3-yl]oxy}-1-oxo-2,3-dihydro-1H-isoindol-2-yl)piperidine-2,6-dione], for which, on WEE1, the “293T-LentiX WEE1-ePL Degradation 4 hr (Ymin)” value turned out to be 29.5 and the DC50 is 2.58 nM. In the test with MKN45 cells, the pEC50 is 8.62 and the “MKN45 Cell Prolif. 120 hr (Ymin-Obs)” value is reported as 7.94.
On to `COC1(c2ccc3cc(CN4CC[C@H](Oc5ccc6c(c5)CN(C5CCC(=O)NC5=O)C6=O)C4)ccc3n2)CCC1` (stereo partly drawn) [3-(5-{[(3S)-1-{[2-(1-methoxycyclobutyl)quinolin-6-yl]methyl}pyrrolidin-3-yl]oxy}-1-oxo-2,3-dihydro-1H-isoindol-2-yl)piperidine-2,6-dione], for which, at WEE1, the “293T-LentiX WEE1-ePL Degradation 4 hr (Ymin)” value is 31 and the DC50 turned out to be 2.69 nM. In addition, in the test with MKN45 cells, the negative-log EC50 (pEC50) is 8.48 and the “MKN45 Cell Prolif. 120 hr (Ymin-Obs)” value is 7.4.
Turning to `CN1CC(c2ccc3cc(CN4CC[C@H](Oc5ccc6c(c5)CN(C5CCC(=O)NC5=O)C6=O)C4)ccc3n2)C1` (stereo partly drawn) [3-(5-{[(3S)-1-{[2-(1-methylazetidin-3-yl)quinolin-6-yl]methyl}pyrrolidin-3-yl]oxy}-1-oxo-2,3-dihydro-1H-isoindol-2-yl)piperidine-2,6-dione], on WEE1, the “293T-LentiX WEE1-ePL Degradation 4 hr (Ymin)” value was 32 and the DC50 was found to be 100 nM. Moreover, in the test with MKN45 cells, the pEC50 was 7.03 and the “MKN45 Cell Prolif. 120 hr (Ymin-Obs)” value turned out to be 11.97.
Turning to `CN1CCC(c2ccc3cc(CN4CC[C@H](Oc5ccc6c(c5)CN(C5CCC(=O)NC5=O)C6=O)C4)ccc3n2)CC1` (stereo partly drawn) [3-(5-{[(3S)-1-{[2-(1-methylpiperidin-4-yl)quinolin-6-yl]methyl}pyrrolidin-3-yl]oxy}-1-oxo-2,3-dihydro-1H-isoindol-2-yl)piperidine-2,6-dione], on WEE1, the “293T-LentiX WEE1-ePL Degradation 4 hr (Ymin)” value was determined as 30 and the DC50 is 28.6 nM. In the test with MKN45 cells, the negative-log EC50 (pEC50) was 7.66 and the “MKN45 Cell Prolif. 120 hr (Ymin-Obs)” value came to 7.273.
In the case of `O=C1CCC(N2Cc3cc(O[C@H]4CCN(Cc5ccc6nc(CC(F)F)ccc6c5)C4)ccc3C2=O)C(=O)N1` (stereo partly drawn) [3-(5-{[(3S)-1-{[2-(2,2-difluoroethyl)quinolin-6-yl]methyl}pyrrolidin-3-yl]oxy}-1-oxo-2,3-dihydro-1H-isoindol-2-yl)piperidine-2,6-dione], on WEE1, the “293T-LentiX WEE1-ePL Degradation 4 hr (Ymin)” value turned out to be 43.5 and the DC50 is 33.4 nM. In the test with MKN45 cells, the negative-log EC50 (pEC50) was 6.46 and the “MKN45 Cell Prolif. 120 hr (Ymin-Obs)” value is 21.74.
For `CC1(C)CN(c2ncc3cc(CN4CC[C@H](Oc5ccc6c(c5)CN(C5CCC(=O)NC5=O)C6=O)C4)ccc3n2)CCO1` (stereo partly drawn) [3-(5-{[(3S)-1-{[2-(2,2-dimethylmorpholin-4-yl)quinazolin-6-yl]methyl}pyrrolidin-3-yl]oxy}-1-oxo-2,3-dihydro-1H-isoindol-2-yl)piperidine-2,6-dione], on WEE1, the “293T-LentiX WEE1-ePL Degradation 4 hr (Ymin)” value is reported as 31 and the DC50 worked out at 11.6 nM. In addition, in the test with MKN45 cells, the pEC50 was 8.12 and the “MKN45 Cell Prolif. 120 hr (Ymin-Obs)” value amounted to 9.381.
The matching figures for `CC1(C)CN(c2ccc3cc(CN4CC[C@H](Oc5ccc6c(c5)CN(C5CCC(=O)NC5=O)C6=O)C4)ccc3n2)CCO1` (stereo partly drawn) [3-(5-{[(3S)-1-{[2-(2,2-dimethylmorpholin-4-yl)quinolin-6-yl]methyl}pyrrolidin-3-yl]oxy}-1-oxo-2,3-dihydro-1H-isoindol-2-yl)piperidine-2,6-dione]: 32, 2.41 nM, 8.58 and 10.48.
For `CC1(C)CC(c2ccc3cc(CN4CC[C@H](Oc5ccc6c(c5)CN(C5CCC(=O)NC5=O)C6=O)C4)ccc3n2)CCO1` (stereo partly drawn) [3-(5-{[(3S)-1-{[2-(2,2-dimethyloxan-4-yl)quinolin-6-yl]methyl}pyrrolidin-3-yl]oxy}-1-oxo-2,3-dihydro-1H-isoindol-2-yl)piperidine-2,6-dione], on WEE1, the “293T-LentiX WEE1-ePL Degradation 4 hr (Ymin)” value was determined as 29 and the DC50 turned out to be 2.56 nM. In the test on MKN45 cells, the pEC50 is 8.67 and the “MKN45 Cell Prolif. 120 hr (Ymin-Obs)” value is reported as 7.959.
For the molecule `CC(C)(O)c1ccc2cc(CN3CC[C@H](Oc4ccc5c(c4)CN(C4CCC(=O)NC4=O)C5=O)C3)ccc2n1` (stereo partly drawn) [3-(5-{[(3S)-1-{[2-(2-hydroxypropan-2-yl)quinolin-6-yl]methyl}pyrrolidin-3-yl]oxy}-1-oxo-2,3-dihydro-1H-isoindol-2-yl)piperidine-2,6-dione], on WEE1, the “293T-LentiX WEE1-ePL Degradation 4 hr (Ymin)” value is 32.75 and the DC50 was 4.09 nM. For the same molecule, in the test with MKN45 cells, the pEC50 is 7.85 and the “MKN45 Cell Prolif. 120 hr (Ymin-Obs)” value stood at 11.2475.
For `COC(C)(C)c1ccc2cc(CN3CC[C@H](Oc4ccc5c(c4)CN(C4CCC(=O)NC4=O)C5=O)C3)ccc2n1` (stereo partly drawn) [3-(5-{[(3S)-1-{[2-(2-methoxypropan-2-yl)quinolin-6-yl]methyl}pyrrolidin-3-yl]oxy}-1-oxo-2,3-dihydro-1H-isoindol-2-yl)piperidine-2,6-dione], in that order: 32.5, 2.6 nM, 8.53 and 6.21.
